Test results: patent publication US10301288B2, “Kinase inhibitors” (Topivert Pharma Limited, priority 2013, dated 2019)
Marks after values point to notes of the source that are not given here.

Legend:
[1] = target: B-Raf (Homo sapiens (Human), UniProt P15056); test: KINOMEscan enzyme binding assay, B-Raf
Experimental: Kinase enzyme binding activities of compounds disclosed herein may be determined using a proprietary assay which measures active site-directed competition binding to an immobilized ligand (Fabian, M. A. et al., Nature Biotechnol., 2005, 23:329-336). These assays may be conducted by DiscoverX (formerly Ambit; San Diego, Calif.). The percentage inhibition produced by incubation with a test compound may be calculated relative to the non-inhibited control.

[2] = tested on: Naïve CD4+ T cells; test: (g) T cell proliferation; type: cell-based; conditions: Homo sapiens, assay (g), read-out: IC50 for inhibition of T cell proliferation
Experimental: PBMCs from healthy subjects are separated from whole blood using a density gradient (Lymphoprep, Axis-Shield Healthcare). The lymphocyte fraction is first enriched for CD4+ T cells by negative magnetic cell sorting as per the manufacturer's instructions (Miltenyi Biotec 130-091-155). Naïve CD4+ T cells are then separated using positive magnetic selection of CD45RA+ cells using microbeads as per the manufacturer's instructions (130-045-901). Cells are plated at 2×10^5 cells per well in 100 μL RPMI/10% FBS on 96 well flat bottomed plate (Corning Costar). 25 μL of test compound are diluted to the appropriate concentration (8× final conc.) in normal medium and added to duplicate wells on the plate to achieve a dose response range of 0.03 ng/mL-250 ng/mL. DMSO is added as a negative control. Plates are allowed to pre-incubate for 2 hours before stimulation with 1 μg/mL anti-CD3 (OKT3; eBioscience). After 72 h, the medium in each well is replaced with 150 μL of fresh medium containing 10 μM BrdU (Roche). […] The reaction is stopped by addition of 50 μL of 1 M H2SO4, and read for absorbance at 450 nm on a plate reader (Varioskan® Flash, ThermoFisher Scientific). The IC50 is determined from the dose response curve.

[3] = tested on: adoptive transfer mouse model; test: (D) Adoptive transfer in mice; type: in vivo, female SCID mice
Experimental: On Study day 0, female Balb/C mice are terminated and spleens obtained for CD45RB^high cell isolation (Using SCID IBD cell Separation protocol). Approximately 4×10^5 cells/mL CD45RB^high cells are then injected IP (100 μL/mouse) into female SCID animals. On study day 14, mice are weighed and randomized into treatment groups based on body weight. On Day 14 compounds are administered BID, via oral gavage, in a peanut oil vehicle at the dose levels outlined below and a dose volume of 5 mL/kg. Treatment continues until study day 42, at which point the animals are necropsied 4 hours after am administration. The colon length and weight is recorded and used as a secondary endpoint in the study as a measurement of colon oedema. The colon is then divided into six cross-sections, four of which are used for histopathology scoring (primary endpoint) and two are homogenised for cytokine analysis. Data shown is the % inhibition of the induction window between naïve animals and vehicle animals, where higher inhibition implies closer to the non-diseased, naïve, phenotype.

[4] = Plasma pharmacokinetics in beagle dogs; type: in vivo, male beagle dogs; conditions: Dog
Experimental: Blood samples (approximately 1.5 mL) were collected from jugular vein such that the samples were obtained at pre-dose, 0.25, 0.5, 1, 2, 4, 6, 8, and 24 hr (p.o.) and pre-dose, 0.08, 0.25, 0.5, 1, 2, 4, 8, 12, 24 and 32 hr (i.v.) post dose. The blood samples were collected from a set of three dogs at each time point in labelled micro centrifuge tube containing K2EDTA as anticoagulant. Plasma samples were separated by centrifugation at 2500 g for 10 min of whole blood and stored below −70° C. until bioanalysis. All samples were processed for analysis by protein precipitation using acetonitrile and analyzed with LC-MS/MS method (LLOQ=0.50 ng/mL). Pharmacokinetic parameters were calculated using the non-compartmental analysis tool of Phoenix WinNonlin® (Version 6.3).

[5] = target: hERG (Homo sapiens (Human), UniProt Q12809); test: hERG inhibition, IonWorks patch clamp; type: cell-based
hERG, sequence (Q12809 whole entry): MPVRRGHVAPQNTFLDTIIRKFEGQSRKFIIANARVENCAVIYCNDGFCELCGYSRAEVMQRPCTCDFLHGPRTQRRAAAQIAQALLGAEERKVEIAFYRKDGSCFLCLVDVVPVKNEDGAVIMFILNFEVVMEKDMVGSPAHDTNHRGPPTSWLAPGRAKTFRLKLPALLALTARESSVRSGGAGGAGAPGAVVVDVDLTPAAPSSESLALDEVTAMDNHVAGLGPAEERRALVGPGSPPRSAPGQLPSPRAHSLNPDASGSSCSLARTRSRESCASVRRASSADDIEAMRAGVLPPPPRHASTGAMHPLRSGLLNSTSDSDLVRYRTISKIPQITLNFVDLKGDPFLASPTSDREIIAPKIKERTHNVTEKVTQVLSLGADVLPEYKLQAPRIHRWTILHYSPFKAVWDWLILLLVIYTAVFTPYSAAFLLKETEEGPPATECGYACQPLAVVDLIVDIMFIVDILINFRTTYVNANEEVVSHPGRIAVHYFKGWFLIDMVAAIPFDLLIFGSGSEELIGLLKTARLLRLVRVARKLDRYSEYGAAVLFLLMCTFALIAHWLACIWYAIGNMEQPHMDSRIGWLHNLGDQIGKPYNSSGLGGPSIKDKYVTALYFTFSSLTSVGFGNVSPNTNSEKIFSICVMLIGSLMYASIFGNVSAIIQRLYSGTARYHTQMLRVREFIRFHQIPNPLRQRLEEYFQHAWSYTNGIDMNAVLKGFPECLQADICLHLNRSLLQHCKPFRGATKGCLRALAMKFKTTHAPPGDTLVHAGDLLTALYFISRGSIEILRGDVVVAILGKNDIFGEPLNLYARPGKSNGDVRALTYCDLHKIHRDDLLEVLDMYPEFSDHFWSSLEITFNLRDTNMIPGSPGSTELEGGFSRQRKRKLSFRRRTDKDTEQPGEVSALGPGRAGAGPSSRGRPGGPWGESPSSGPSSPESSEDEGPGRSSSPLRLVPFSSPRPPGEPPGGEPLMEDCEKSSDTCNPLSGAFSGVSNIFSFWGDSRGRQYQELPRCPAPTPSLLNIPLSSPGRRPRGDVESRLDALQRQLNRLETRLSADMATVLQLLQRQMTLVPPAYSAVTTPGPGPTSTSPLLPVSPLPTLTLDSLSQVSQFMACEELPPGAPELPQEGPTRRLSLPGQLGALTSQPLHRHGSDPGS
Experimental: Eight-point concentration curves were generated using serial 3-fold dilutions from the maximum final assay concentration (3 μM). Electrophysiological recordings were made from a Chinese Hamster Lung cell line stably expressing the full length hERG channel Single cell ionic currents were measured in the perforated patch clamp configuration (100 μg/mL) amphotericin) at room temperature (21-23° C.) using an IonWorks Quattro instrument. The internal solution contained (mM): 140 KCl, 1 MgCl2, 1 EGTA, 20 HEPES and was buffered to pH 7.3. The external solution contained (mM):138 NaCl, 2.7 KCl, 0.9 CaCl2, 0.5 MgCl2, 8 Na2HPO4, 1.5 KH2PO4, also buffered to pH 7.3. Cells were clamped at a holding potential of −70 mV for 30 s and then stepped to +40 mV for 1 s. This was followed by a hyperpolarising step of 1 s to −30 mV to evoke the hERG tail current. This sequence was repeated 5 times at a frequency of 0.25 Hz. Currents were measured from the tail step at the 5th pulse, and referenced to the holding current. Compounds were then incubated for 6-7 minutes prior to a second measurement of the hERG signal using an identical pulse train. Eight-point concentration curves were generated using serial 3-fold dilutions from the maximum final assay concentration (3 μM).

[6] = male, beagle, plasma, 0.05 mg/kg intravenous

B-Raf, sequence (P15056 whole entry): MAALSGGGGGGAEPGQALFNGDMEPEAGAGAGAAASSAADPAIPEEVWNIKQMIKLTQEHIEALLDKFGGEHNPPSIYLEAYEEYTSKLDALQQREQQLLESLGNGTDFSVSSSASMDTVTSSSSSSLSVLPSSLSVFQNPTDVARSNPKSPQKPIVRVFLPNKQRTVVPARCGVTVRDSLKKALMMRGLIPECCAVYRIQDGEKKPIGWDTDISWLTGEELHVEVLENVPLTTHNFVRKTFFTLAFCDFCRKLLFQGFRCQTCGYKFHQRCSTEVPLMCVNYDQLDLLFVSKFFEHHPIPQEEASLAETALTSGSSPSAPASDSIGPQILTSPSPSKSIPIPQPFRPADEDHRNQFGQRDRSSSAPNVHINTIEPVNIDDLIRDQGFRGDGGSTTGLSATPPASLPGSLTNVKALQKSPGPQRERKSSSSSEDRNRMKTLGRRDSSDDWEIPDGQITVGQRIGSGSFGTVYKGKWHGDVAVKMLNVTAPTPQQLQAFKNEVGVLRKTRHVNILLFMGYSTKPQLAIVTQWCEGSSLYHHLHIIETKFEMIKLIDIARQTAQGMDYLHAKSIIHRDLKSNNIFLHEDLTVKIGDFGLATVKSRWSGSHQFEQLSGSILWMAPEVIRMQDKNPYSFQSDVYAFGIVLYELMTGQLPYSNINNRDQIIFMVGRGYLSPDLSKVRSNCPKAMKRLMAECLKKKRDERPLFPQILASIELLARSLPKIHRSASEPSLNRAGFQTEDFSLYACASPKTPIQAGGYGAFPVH

SMILES: C#Cc1cc(Nc2nccc(Oc3ccc(NC(=O)Nc4cc(C(C)(C)C)nn4-c4ccc(C)cc4)c4ccccc34)n2)cc(C(=O)NCCOCCOCCOC)c1 [Example 2, 3-((4-((4-(3-(3-(tert-Butyl)-1-(p-tolyl)-1H-pyrazol-5-yl)ureido)naphthalen-1-yl)oxy)pyrimidin-2-yl)amino)-5-ethynyl-N-(2-(2-(2-methoxyethoxy)ethoxy)ethyl)-benzamide]
- effect on the binding of B-Raf to its standard ligand [1]: did not have any effect
- IC50 [2]: 2.7 nM
- % Inhibition of colon weight:length ([3]; 0.04 mg/kg BID oral): 25%#
- % inhibition of IL-8 release ([3]; 0.04 mg/kg BID oral): 34%#
- % inhibition of overall histopathology score ([3]; 0.04 mg/kg BID oral): 2%
- % Inhibition of colon weight:length ([3]; 0.2 mg/kg BID oral): 23%
- % inhibition of IL-8 release ([3]; 0.2 mg/kg BID oral): 39%
- % inhibition of overall histopathology score ([3]; 0.2 mg/kg BID oral): 5%
- % Inhibition of colon weight:length ([3]; 1 mg/kg BID oral): 43%#
- % inhibition of IL-8 release ([3]; 1 mg/kg BID oral): 36%#
- % inhibition of overall histopathology score ([3]; 1 mg/kg BID oral): 33%
- % Inhibition of colon weight:length ([3]; 5 mg/kg BID oral): 61%*
- % inhibition of IL-8 release ([3]; 5 mg/kg BID oral): 90%#
- % inhibition of overall histopathology score ([3]; 5 mg/kg BID oral): 46%
- Fpo ([4]; 1 mg/kg p.o., Plasma): 0%
- AUC(0-inf) [4, 6]: 223 ± 92 ng·h/mL
- AUC(0-t) [4, 6]: 218 ± 90 ng·h/mL
- C0 [4, 6]: 1370 ng/mL
- Vd [4, 6]: 0.2 ± 0.1 L/kg
- clearance [4, 6]: 4.1 ± 1.4 mL/min/kg
- half-life [4, 6]: 1.9 ± 0.4 h
- IC50 [5]: > 3000 nM
- inhibition at 3 µM ([5]; human, pH 7.3, 3 μM, read-out: inhibition of the hERG channel): 0%
